What was measured:
Format in all cases: in vivo
[1] = tested on: Kochia (Kochia scoparia); assay: Test A preemergence
In short: (§1)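 Ratings of 0 (no effect) to 100 (complete control) come from visual comparison with untreated controls roughly 10 d after treatment. Test chemicals, formulated in a non-phytotoxic solvent mixture with surfactant, were applied either as a preemergence directed soil spray on seeded soil or postemergence to one- to two-leaf plants 2 to 10 cm tall.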

[2] = tested on: barnyardgrass (Echinochloa crus-galli); assay: Test A preemergence
In short: as §1

[3] = tested on: giant foxtail (Setaria faberii); assay: Test A preemergence
In short: as §1

[4] = tested on: pigweed (Amaranthus retroflexus); assay: Test A preemergence
[5] = tested on: ragweed (common ragweed, Ambrosia elatior); assay: Test A preemergence
In short: as §1

[6] = tested on: ryegrass, Italian (Italian ryegrass, Lolium multiflorum); assay: Test A preemergence
In short: as §1

[7] = tested on: Galium (catchweed bedstraw, Galium aparine); assay: Test A postemergence
In short: as §1

[8] = tested on: Kochia (Kochia scoparia); assay: Test A postemergence
In short: as §1

[9] = tested on: barnyardgrass (Echinochloa crus-galli); assay: Test A postemergence
In short: as §1

[10] = tested on: blackgrass (Alopecurus myosuroides); assay: Test A postemergence
In short: as §1

[11] = tested on: corn (Zea mays); assay: Test A postemergence
In short: as §1

[12] = tested on: giant foxtail (Setaria faberii); assay: Test A postemergence
In short: as §1

[13] = tested on: pigweed (Amaranthus retroflexus); assay: Test A postemergence
In short: as §1

[14] = tested on: ragweed (common ragweed, Ambrosia elatior); assay: Test A postemergence
In short: as §1

[15] = tested on: ryegrass, Italian (Italian ryegrass, Lolium multiflorum); assay: Test A postemergence
In short: as §1

[16] = tested on: wheat (Triticum aestivum); assay: Test A postemergence
In short: as §1

[17] = tested on: barnyardgrass (Echinochloa crus-galli); assay: Test B flooded paddy test; details: Flood, 250 g ai/ha; 0 to 100 scale where 0 is no effect and 100 is complete control; 13 to 15 d
In short: (§2)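 Percent control, visually estimated after 13–15 d in the greenhouse on a 0–100 basis, compares treated pots with untreated ones; compound was put into paddy water 3 cm above the soil when plants had two leaves.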

[18] = tested on: ducksalad (Heteranthera limosa); assay: Test B flooded paddy test; details: Flood, 250 g ai/ha; 0 to 100 scale where 0 is no effect and 100 is complete control; 13 to 15 d
In short: as §2

[19] = tested on: rice (Oryra sativa); assay: Test B flooded paddy test; details: Flood, 250 g ai/ha; 0 to 100 scale where 0 is no effect and 100 is complete control; 13 to 15 d
In short: as §2

[20] = tested on: sedge, umbrella (small-flower umbrella sedge, Cyperus difformis); assay: Test B flooded paddy test; details: Flood, 250 g ai/ha; 0 to 100 scale where 0 is no effect and 100 is complete control; 13 to 15 d
In short: as §2

[21] = tested on: blackgrass (Alopecurus myosuroides); assay: Test C preemergence; details: for Plant response rating, Blackgrass: scale 0 to 100, 0 no effect, 100 complete control
In short: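 Scores of 0 to 100 reflect visual comparison with control plants, where 0 means no effect and 100 complete control, made 13 to 15 d after treatment. Application was preemergence to seeds in loam-sand soil or postemergence to plants 2 to 18 cm tall in peat-based mix, using a surfactant-containing solvent formulation.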

[22] = 125 g ai/ha, preemergence, 0 to 100 scale (0 no effect, 100 complete control)
[23] = Preemergence, 500 g ai/ha, visual injury approx. 10 d
[24] = 125 g ai/ha, postemergence, visual injury rating on 0 to 100 scale (0 no effect, 100 complete control), approx. 10 d
[25] = 500 g ai/ha, postemergence, 0 to 100 scale, 0 no effect, 100 complete control
[26] = 125 g ai/ha, Preemergence, visual injury after approximately 10 d, 0 to 100 scale where 0 is no effect and 100 is complete control
[27] = 500 g ai/ha, preemergence, 0 to 100 scale, 0 = no effect, 100 = complete control
[28] = 125 g ai/ha, postemergence, visual rating after approx. 10 d, 0 to 100 scale (0 no effect, 100 complete control)
[29] = Postemergence, 500 g ai/ha, 0 to 100 scale where 0 is no effect and 100 is complete control

CN1CC(c2ccc(C(F)(F)F)c(F)c2)C(C(=O)Nc2ccccc2S(C)(=O)=O)C1=O (centres unmarked) [Compound 397]
Plant response rating, Kochia [1, 22]: 70 | Kochia plant response rating (0 to 100 scale, 0 is no effect, 100 is complete control) [1, 23]: 90 | Plant response rating, Barnyardgrass [2, 22]: 80 | Barnyardgrass plant response rating (0 to 100 scale, 0 is no effect, 100 is complete control) [2, 23]: 90 | Plant response rating, Foxtail, Giant [3, 22]: 90 | Foxtail, Giant plant response rating (0 to 100 scale, 0 is no effect, 100 is complete control) [3, 23]: 90 | Plant response rating, Pigweed [4, 22]: 90 | Pigweed plant response rating (0 to 100 scale, 0 is no effect, 100 is complete control) [4, 23]: 90 | Plant response rating, Ragweed [5, 22]: 50 | Ragweed plant response rating (0 to 100 scale, 0 is no effect, 100 is complete control) [5, 23]: 70 | Plant response rating, Ryegrass, Italian [6, 22]: 30 | Ryegrass, Italian plant response rating (0 to 100 scale, 0 is no effect, 100 is complete control) [6, 23]: 70 | Galium plant response rating [7, 24]: 60 | Plant response rating, Galium [7, 25]: 60 | Kochia plant response rating [8, 24]: 20 | Plant response rating, Kochia [8, 25]: 50 | Barnyardgrass plant response rating [9, 24]: 70 | Plant response rating, Barnyardgrass [9, 25]: 90 | Blackgrass plant response rating [10, 24]: 60 | Plant response rating, Blackgrass [10, 25]: 70 | Corn plant response rating [11, 24]: 50 | Plant response rating, Corn [11, 25]: 70 | Foxtail, Giant plant response rating [12, 24]: 70 | Plant response rating, Foxtail, Giant [12, 25]: 80 | Pigweed plant response rating [13, 24]: 40 | Plant response rating, Pigweed [13, 25]: 70 | Ragweed plant response rating [14, 24]: 0 | Plant response rating, Ragweed [14, 25]: 20 | Ryegrass, Italian plant response rating [15, 24]: 40 | Plant response rating, Ryegrass, Italian [15, 25]: 60 | Wheat plant response rating [16, 24]: 40 | Plant response rating, Wheat [16, 25]: 50 | Plant response rating, Barnyardgrass [17]: 65 | Plant response rating, Ducksalad [18]: 75 | Plant response rating, Rice [19]: 0 | Plant response rating, Sedge, Umbrella [20]: 0 | Plant response rating, Blackgrass ([21]; 31 g ai/ha): 55 | Plant response rating, Blackgrass ([21]; 62 g ai/ha): 70 | Plant response rating, Blackgrass ([21]; 125 g ai/ha): 90 | Plant response rating, Blackgrass ([21]; 250 g ai/ha): 90

CN1CC(c2ccc(F)c(C(F)(F)F)c2)C(C(=O)Nc2cccc(F)c2F)C1=O (centres unmarked) [Compound 613]
Plant response rating, Kochia [1, 26]: 60 | Plant response rating, Kochia [1, 27]: 70 | Plant response rating, Barnyardgrass [2, 26]: 90 | Plant response rating, Barnyardgrass [2, 27]: 90 | Plant response rating, Foxtail, Giant [3, 26]: 90 | Plant response rating, Foxtail, Giant [3, 27]: 90 | Plant response rating, Pigweed [4, 26]: 70 | Plant response rating, Pigweed [4, 27]: 70 | Plant response rating, Ragweed [5, 26]: 60 | Plant response rating, Ragweed [5, 27]: 60 | Plant response rating, Ryegrass, Italian [6, 26]: 70 | Plant response rating, Ryegrass, Italian [6, 27]: 80 | Plant response rating, Galium [7, 28]: 60 | Plant response rating, Galium [7, 29]: 60 | Plant response rating, Kochia [8, 28]: 60 | Plant response rating, Kochia [8, 29]: 70 | Plant response rating, Barnyardgrass [9, 28]: 70 | Plant response rating, Barnyardgrass [9, 29]: 90 | Plant response rating, Blackgrass [10, 28]: 40 | Plant response rating, Blackgrass [10, 29]: 60 | Plant response rating, Corn [11, 28]: 50 | Plant response rating, Corn [11, 29]: 80 | Plant response rating, Foxtail, Giant [12, 28]: 90 | Plant response rating, Foxtail, Giant [12, 29]: 90 | Plant response rating, Pigweed [13, 28]: 50 | Plant response rating, Pigweed [13, 29]: 70 | Plant response rating, Ragweed [14, 28]: 20 | Plant response rating, Ragweed [14, 29]: 30 | Plant response rating, Ryegrass, Italian [15, 28]: 60 | Plant response rating, Ryegrass, Italian [15, 29]: 60 | Plant response rating, Wheat [16, 28]: 40 | Plant response rating, Wheat [16, 29]: 50 | Plant response rating, Barnyardgrass [17]: 80 | Plant response rating, Ducksalad [18]: 98 | Plant response rating, Rice [19]: 10 | Plant response rating, Sedge, Umbrella [20]: 75 | Plant response rating (scale of 0 to 100), Blackgrass ([21]; 31 g ai/ha, 0 is no effect, 100 is complete control): 85 | Plant response rating, Blackgrass ([21]; 62 g ai/ha): 85 | Plant response rating, Blackgrass ([21]; 125 g ai/ha): 95 | Plant response rating, Blackgrass ([21]; 250 g ai/ha): 95

Source: patent US12077503B2, “Substituted cyclic amides and their use as herbicides” (FMC CORPORATION, priority 2015, dated 2024)
